Reference: ChEMBL document CHEMBL1201862, “PubChem BioAssay data set” (2004)
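Cultured in 96-well plates, cells were exposed to test compound for 48 hours across five concentrations. At the GI50, growth is halved.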 Active and inactive are the calls of the source. No stated cut-off is given here; in the data, active = GI50 up to about 1.1 µM and inactive = higher.

Columns and labels:
Assay in all cases: inhibition of tumour cell growth, NCI panel, 48 h
[1] = tested on: RXF 393
[2] = tested on: UACC-257
[3] = tested on: MOLT-4
[4] = tested on: SK-OV-3
[5] = tested on: CCRF-CEM
[6] = tested on: UACC-62
[7] = tested on: MDA-MB-435
[8] = tested on: MDA-MB-231
[9] = tested on: HT-29
[10] = tested on: COLO 205
[11] = tested on: MCF7
[12] = tested on: SN12C
[13] = tested on: NCI-H460
[14] = tested on: MDA-N
[15] = tested on: HCC 2998
[16] = tested on: HOP-62
[17] = tested on: LOX IMVI
[18] = tested on: Malme-3M
[19] = tested on: HOP-92
[20] = tested on: SK-MEL-2
[21] = tested on: NCI-H226
[22] = tested on: U-251
[23] = tested on: IGROV-1
[24] = tested on: EKVX
[25] = tested on: 786-0
[26] = tested on: SNB-19
[27] = tested on: OVCAR-4
[28] = tested on: SR
[29] = tested on: DU-145
[30] = tested on: M14
[31] = tested on: K562
[32] = tested on: HCT-15
[33] = tested on: NCI-H23
[34] = tested on: OVCAR-3
[35] = tested on: KM12
[36] = tested on: SK-MEL-28
[37] = tested on: SK-MEL-5
[38] = tested on: HCT-116
[39] = tested on: OVCAR-5
[40] = tested on: CAKI-1
[41] = tested on: NCI-H522
[42] = tested on: UO-31
[43] = tested on: T47D
[44] = tested on: SF-539
[45] = tested on: NCI/ADR-RES
[46] = tested on: SF-295
[47] = tested on: ACHN
[48] = tested on: A498
[49] = tested on: OVCAR-8
[50] = tested on: A549
[51] = tested on: TK-10
[52] = tested on: Hs-578T
[53] = tested on: BT-549
[54] = tested on: SNB-75
[55] = tested on: SW-620
[56] = tested on: HL-60
[57] = tested on: PC-3
[58] = tested on: SF-268
[59] = tested on: RPMI-8226

Measured: GI50

COc1ccc2c(c1)Cc1cc(/N=[N+](\[O-])c3ccc4c(c3)Cc3cc(OC)ccc3-4)ccc1-2
inactive: [1] 57.7 µM | [2] 12.9 µM | [3] 36.6 µM | [4] > 100 µM | [5] 12 µM | [6] 24.5 µM | [7] 27.1 µM | [8] 43 µM | [9] 15.6 µM | [10] 15.3 µM | [11] 19.7 µM | [12] > 100 µM | [13] 39.3 µM | [14] 29.7 µM | [15] 14.2 µM | [16] 43.9 µM | [17] 33.1 µM | [18] 38.9 µM | [19] 44.1 µM | [20] 60 µM | [21] 70.3 µM | [22] 16.9 µM | [23] 24 µM | [24] 11.3 µM | [25] 33.2 µM | [26] 51.8 µM | [27] 40 µM | [28] 16.4 µM | [29] > 100 µM | [30] 49.4 µM | [31] 38.8 µM | [33] 65.6 µM | [34] 48.8 µM | [35] 29.4 µM | [36] 75.2 µM | [37] 18.1 µM | [38] 60.7 µM | [39] > 100 µM | [40] 36.2 µM | [41] 4.78 µM | [42] 24.9 µM | [43] 38.5 µM | [44] 10.2 µM | [45] 89.1 µM | [46] 67.3 µM | [47] 37.2 µM | [48] 35.6 µM | [49] 38.6 µM | [50] 43.1 µM | [51] 64.3 µM | [52] 54 µM | [53] 76.7 µM | [54] 39.2 µM | [55] > 100 µM | [56] 7.48 µM | [57] 35.9 µM | [58] 82.8 µM
95.7 µM: [32]

COc1cccc2c(=O)oc(-c3ccc(C(C)(C)C)cc3)nc12
inactive: [1] 49.3 µM | [2] > 100 µM | [3] 22.7 µM | [4] 80.9 µM | [5] 33.7 µM | [6] > 100 µM | [7] 59.7 µM | [8] 58.1 µM | [9] 41.7 µM | [10] 57 µM | [11] 57 µM | [12] 96.8 µM | [13] 65.8 µM | [14] 76.7 µM | [16] 48.2 µM | [17] 22.5 µM | [18] > 100 µM | [19] 41.6 µM | [20] 44 µM | [22] 42.2 µM | [23] 45.1 µM | [24] 63.7 µM | [25] > 100 µM | [26] > 100 µM | [27] 53.6 µM | [28] 26.1 µM | [29] > 100 µM | [30] 82 µM | [31] > 100 µM | [33] > 100 µM | [34] 29.9 µM | [35] 32.4 µM | [36] > 100 µM | [37] 28.8 µM | [59] 34.3 µM | [38] 49.9 µM | [39] > 100 µM | [40] 35.8 µM | [41] 30.1 µM | [42] > 100 µM | [43] 80.4 µM | [44] > 100 µM | [45] 54.8 µM | [46] 69.7 µM | [47] > 100 µM | [48] > 100 µM | [49] 39.7 µM | [50] 85.1 µM | [51] > 100 µM | [52] 79.3 µM | [53] 44 µM | [54] 23.9 µM | [55] 55.2 µM | [56] 18.5 µM | [57] > 100 µM | [58] 84.9 µM
65.5 µM: [32]
active: [15] 0.447 µM

CCOC(=O)c1ccc(/N=C/C=C(\Nc2ccc(C(=O)OCC)cc2)C23CC4CC(CC(C4)C2)C3)cc1
active: [3] < 0.01 µM
92.3 µM: [32]
inactive: [1] 27 µM | [2] 35.9 µM | [4] > 100 µM | [6] 31 µM | [7] 89.7 µM | [8] > 100 µM | [9] 26.5 µM | [10] 45 µM | [11] 43.9 µM | [12] 53.2 µM | [13] 42.2 µM | [14] 61.1 µM | [15] 91.2 µM | [16] > 100 µM | [17] 95.3 µM | [18] > 100 µM | [19] 15.8 µM | [20] > 100 µM | [21] > 100 µM | [22] > 100 µM | [23] > 100 µM | [24] 48.4 µM | [25] 56.1 µM | [26] > 100 µM | [27] 70 µM | [28] 11.1 µM | [29] 55.1 µM | [30] 35.8 µM | [31] 4.05 µM | [33] 54 µM | [34] > 100 µM | [35] 43.5 µM | [36] > 100 µM | [37] 30.6 µM | [38] 56.5 µM | [39] 35.8 µM | [40] > 100 µM | [41] > 100 µM | [42] 3.43 µM | [43] 18.3 µM | [44] 28.2 µM | [45] > 100 µM | [46] 52.1 µM | [47] 93.1 µM | [48] 38.4 µM | [49] 44.3 µM | [50] 50.6 µM | [51] 71.6 µM | [52] > 100 µM | [53] > 100 µM | [54] 65.6 µM | [55] 27.5 µM | [56] 3.27 µM | [57] 51.1 µM | [58] > 100 µM

COc1ccc(/[N+]([O-])=C/c2ccc(OC(=S)S)c(OC)c2)cc1
inactive: [1] 19.6 µM | [2] > 100 µM | [3] 33 µM | [4] 47.1 µM | [6] 99.3 µM | [7] 9.46 µM | [8] > 100 µM | [9] 33.3 µM | [10] 44.9 µM | [11] 5.58 µM | [12] 37.7 µM | [13] > 100 µM | [14] 21.3 µM | [15] > 100 µM | [16] 39.7 µM | [17] 38.5 µM | [18] 62.7 µM | [19] 23.2 µM | [20] 35.5 µM | [21] 65.6 µM | [22] 36.2 µM | [23] 39.3 µM | [24] 31.4 µM | [25] 50.6 µM | [26] 43.6 µM | [27] 17.4 µM | [28] 15.6 µM | [29] 41.6 µM | [30] 46.8 µM | [31] 21.7 µM | [33] 29.6 µM | [34] 43.9 µM | [35] 8.39 µM | [36] 52.2 µM | [37] 24.5 µM | [59] 30.3 µM | [38] 28.5 µM | [39] > 100 µM | [40] 17 µM | [41] 25.8 µM | [42] 44.6 µM | [43] 28.6 µM | [44] 45.4 µM | [45] 22.7 µM | [46] 28.6 µM | [47] 75 µM | [48] > 100 µM | [49] 38.5 µM | [50] 40.6 µM | [51] 85.1 µM | [52] 34.4 µM | [53] 26.2 µM | [54] 16.3 µM | [55] 30.9 µM | [56] 17.3 µM | [57] 42.4 µM | [58] 42.5 µM
22.2 µM: [32]
